The results in this text go back to ChEMBL document CHEMBL1201862, “PubChem BioAssay data set” (2004).

The source made the active and inactive calls. Rule as the data show it, for most assays here: actives have a measured EC50 and inactives only a lower limit.

Experiment [1] in a line: C. albicans growth with fluconazole, confirmation, fluorescence, retest (AID 2467). In kind it is functional, cell-based.
A short description of experiment [2]: NIH-3T3 fibroblast cytotoxicity, dose response, cytotoxicity control, cell-based, fluorescence, Alamar Blue, secondary assay (AID 2327).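 Also: NIH-3T3 mouse fibroblasts cultured with fluconazole at 8 µg/mL.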 It counts as functional.
The test system of experiment [3] is Streptococcus sp. 'group A'. In words: growth inhibition of control SK(-) GAS strain, dose response, counter-screen for streptokinase expression inhibitor project, luminescence, kanamycin, BacTiterGlo, confirmation (AID 1900). It counts as functional, organism-based. For orientation: A counterscreen serves to expose hits that act by an unwanted route or on another target.

Another experiment has as its target T1, Streptokinase A (Streptococcus pyogenes serotype M1, UniProt P10520).
T1 sequence (P10520 whole entry): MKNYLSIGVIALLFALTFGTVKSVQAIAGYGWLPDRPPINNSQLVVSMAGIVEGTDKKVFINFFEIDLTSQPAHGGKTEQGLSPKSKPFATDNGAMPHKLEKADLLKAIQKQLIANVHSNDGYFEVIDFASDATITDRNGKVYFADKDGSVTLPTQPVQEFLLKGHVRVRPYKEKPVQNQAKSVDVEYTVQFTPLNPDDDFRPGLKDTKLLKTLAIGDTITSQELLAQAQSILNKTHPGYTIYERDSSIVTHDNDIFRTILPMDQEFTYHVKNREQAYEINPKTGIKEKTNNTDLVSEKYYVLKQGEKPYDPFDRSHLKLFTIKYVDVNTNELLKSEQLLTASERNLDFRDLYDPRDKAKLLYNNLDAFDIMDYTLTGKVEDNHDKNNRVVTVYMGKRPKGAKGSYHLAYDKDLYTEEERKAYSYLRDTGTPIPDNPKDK
In words: S. pyogenes streptokinase expression inhibitors, potency, dose response, plasminogen activation absorbance, OD405 (AID 1914).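 Also: secreted streptokinase activity via plasminogen activation per viability signal from cell pellet.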 In kind it is functional, Streptococcus pyogenes M1 GAS.

For experiment [4], the target named is T2, Corticotropin-releasing factor receptor 2/Corticotropin-releasing factor-binding protein (Homo sapiens, UniProt P24387+Q13324).
T2 sequence (Q13324 whole entry): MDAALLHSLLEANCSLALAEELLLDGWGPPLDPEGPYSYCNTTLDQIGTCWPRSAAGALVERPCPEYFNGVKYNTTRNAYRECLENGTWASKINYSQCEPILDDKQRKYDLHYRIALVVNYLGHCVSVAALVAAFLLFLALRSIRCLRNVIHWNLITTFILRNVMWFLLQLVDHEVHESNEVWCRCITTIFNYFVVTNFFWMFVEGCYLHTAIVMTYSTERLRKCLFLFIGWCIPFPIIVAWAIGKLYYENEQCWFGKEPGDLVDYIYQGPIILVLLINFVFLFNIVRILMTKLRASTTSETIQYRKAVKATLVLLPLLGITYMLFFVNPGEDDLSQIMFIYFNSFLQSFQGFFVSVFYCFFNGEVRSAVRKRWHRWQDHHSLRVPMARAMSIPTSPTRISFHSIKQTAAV
T2 sequence (P24387 whole entry): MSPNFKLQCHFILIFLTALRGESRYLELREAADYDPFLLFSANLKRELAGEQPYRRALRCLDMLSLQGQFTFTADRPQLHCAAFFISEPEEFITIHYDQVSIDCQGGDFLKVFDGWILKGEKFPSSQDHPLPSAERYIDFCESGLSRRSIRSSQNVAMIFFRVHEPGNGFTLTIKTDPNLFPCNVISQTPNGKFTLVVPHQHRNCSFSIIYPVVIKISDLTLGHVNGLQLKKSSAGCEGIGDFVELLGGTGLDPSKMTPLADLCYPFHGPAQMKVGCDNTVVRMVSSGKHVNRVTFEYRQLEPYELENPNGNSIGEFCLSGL
Briefly: activators of CRF receptor 2 with binding protein – uHTS hits, confirmation (AID 602473). In kind it is functional. The following applies: read-out: EC50_Mean.

The subject of another experiment is Streptococcus. Briefly: Group A Streptococcus viability loss, dose response, counter-screen for streptokinase expression inhibitor project, luminescence, BacTiterGlo (AID 1915).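 Also: potency for reduction of bacterial viability or growth.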 It counts as functional, organism-based.
For experiment [5], the target named is T2, Corticotropin-releasing factor receptor 2/Corticotropin-releasing factor-binding protein. Briefly: Dose Response confirmation of uHTS hits for small molecule antagonists of the CRF-binding protein and CRF-R2 receptor complex. In kind it is functional. The following applies: read-out: IC50_Mean.
Experiment [6] can be described thus: Luminescence Cell-Based Dose Confirmation HTS to Identify Activators of 5'UTR Stem-Loop Driven Alpha-Synuclein mRNA Translation in H4 Neuroglioblastoma Cells. [Related pubchem assays: 1829 (Project Summary), 1814 (Primary HTS)]. In kind it is functional.
Another experiment relates to H4. Briefly: Luminescence Cell-Based Dose Response HTS to Identify Activators of 5'UTR Stem-Loop Driven Prion Protein mRNA Translation in H4 Neuroglioblastoma Cells. [Related pubchem assays: 1829 (Project Summary), 1814 (Primary HTS)]. Particulars: Homo sapiens. In kind it is functional.
Experiment [7] is described as follows: Luminescence Cell-Based Dose Response HTS to Identify Activators of Luciferase Translation or Activity in H4 […] Cells. [Related pubchem assays: 1829 (Project Summary), 1814 (Primary HTS)]. In kind it is functional.
A further experiment concerns INS1. In words: beta cell apoptosis inhibitors, cytokine rescue, dose response, luminescence, retest (AID 449756).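 Also: cell death triggered by IL-1 beta plus TNF-alpha plus IFN-gamma mixture; protective hits raise ATP signal compared with cytokine alone wells.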 It counts as functional, cell-based. Particulars: Rattus norvegicus.
Experiment [8] addresses T3, Fatty acid synthase (Homo sapiens, UniProt P49327). Briefly: FAS thioesterase domain inhibitors, dose response, biochemical, endpoint fluorescence intensity, uHTS hits (AID 624327).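 Also: fluorescence from hydrolysis of an O-methyl fluorescein acyl ester substrate by the enzyme.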 In kind it is functional.
In experiment [9] the target is T3, Fatty acid synthase. In words: FAS thioesterase domain inhibitors, dose response, biochemical, kinetic fluorescence intensity (AID 624326).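 Also: rate of fluorescence rise from hydrolysis of a fluorogenic O-methyl fluorescein ester substrate.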 In kind it is functional.
Experiment [10] is described as follows: inhibitors of intracellular T. cruzi replication, confirmation, NIH3T3 host cells, beta-gal luminescence (AID 2044).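 Also: intracellular parasites grown in NIH/3T3 mouse fibroblasts as host cells; luminescent beta-galactosidase reporter signal from transgenic T. cruzi replicating inside host cells; inhibitors lower the luminescence signal.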 It counts as functional, cell-based.
Experiment [11] can be described thus: cytotoxicity toward NIH3T3 fibroblasts, dose response, counter-screen, cell-based, ATP luminescence, mouse fibroblasts (AID 2010).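 Also: cells exposed to compound for about 90 hours before reading.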 It counts as functional.
Experiment [12] is described as follows: HEp-2 cell cytotoxicity, dose response, cytotoxicity control for RSV inhibitor project, HTS (AID 2410). It counts as functional. The following applies: human respiratory syncytial virus.

T3 sequence (P49327 whole entry, the tested form may be a part): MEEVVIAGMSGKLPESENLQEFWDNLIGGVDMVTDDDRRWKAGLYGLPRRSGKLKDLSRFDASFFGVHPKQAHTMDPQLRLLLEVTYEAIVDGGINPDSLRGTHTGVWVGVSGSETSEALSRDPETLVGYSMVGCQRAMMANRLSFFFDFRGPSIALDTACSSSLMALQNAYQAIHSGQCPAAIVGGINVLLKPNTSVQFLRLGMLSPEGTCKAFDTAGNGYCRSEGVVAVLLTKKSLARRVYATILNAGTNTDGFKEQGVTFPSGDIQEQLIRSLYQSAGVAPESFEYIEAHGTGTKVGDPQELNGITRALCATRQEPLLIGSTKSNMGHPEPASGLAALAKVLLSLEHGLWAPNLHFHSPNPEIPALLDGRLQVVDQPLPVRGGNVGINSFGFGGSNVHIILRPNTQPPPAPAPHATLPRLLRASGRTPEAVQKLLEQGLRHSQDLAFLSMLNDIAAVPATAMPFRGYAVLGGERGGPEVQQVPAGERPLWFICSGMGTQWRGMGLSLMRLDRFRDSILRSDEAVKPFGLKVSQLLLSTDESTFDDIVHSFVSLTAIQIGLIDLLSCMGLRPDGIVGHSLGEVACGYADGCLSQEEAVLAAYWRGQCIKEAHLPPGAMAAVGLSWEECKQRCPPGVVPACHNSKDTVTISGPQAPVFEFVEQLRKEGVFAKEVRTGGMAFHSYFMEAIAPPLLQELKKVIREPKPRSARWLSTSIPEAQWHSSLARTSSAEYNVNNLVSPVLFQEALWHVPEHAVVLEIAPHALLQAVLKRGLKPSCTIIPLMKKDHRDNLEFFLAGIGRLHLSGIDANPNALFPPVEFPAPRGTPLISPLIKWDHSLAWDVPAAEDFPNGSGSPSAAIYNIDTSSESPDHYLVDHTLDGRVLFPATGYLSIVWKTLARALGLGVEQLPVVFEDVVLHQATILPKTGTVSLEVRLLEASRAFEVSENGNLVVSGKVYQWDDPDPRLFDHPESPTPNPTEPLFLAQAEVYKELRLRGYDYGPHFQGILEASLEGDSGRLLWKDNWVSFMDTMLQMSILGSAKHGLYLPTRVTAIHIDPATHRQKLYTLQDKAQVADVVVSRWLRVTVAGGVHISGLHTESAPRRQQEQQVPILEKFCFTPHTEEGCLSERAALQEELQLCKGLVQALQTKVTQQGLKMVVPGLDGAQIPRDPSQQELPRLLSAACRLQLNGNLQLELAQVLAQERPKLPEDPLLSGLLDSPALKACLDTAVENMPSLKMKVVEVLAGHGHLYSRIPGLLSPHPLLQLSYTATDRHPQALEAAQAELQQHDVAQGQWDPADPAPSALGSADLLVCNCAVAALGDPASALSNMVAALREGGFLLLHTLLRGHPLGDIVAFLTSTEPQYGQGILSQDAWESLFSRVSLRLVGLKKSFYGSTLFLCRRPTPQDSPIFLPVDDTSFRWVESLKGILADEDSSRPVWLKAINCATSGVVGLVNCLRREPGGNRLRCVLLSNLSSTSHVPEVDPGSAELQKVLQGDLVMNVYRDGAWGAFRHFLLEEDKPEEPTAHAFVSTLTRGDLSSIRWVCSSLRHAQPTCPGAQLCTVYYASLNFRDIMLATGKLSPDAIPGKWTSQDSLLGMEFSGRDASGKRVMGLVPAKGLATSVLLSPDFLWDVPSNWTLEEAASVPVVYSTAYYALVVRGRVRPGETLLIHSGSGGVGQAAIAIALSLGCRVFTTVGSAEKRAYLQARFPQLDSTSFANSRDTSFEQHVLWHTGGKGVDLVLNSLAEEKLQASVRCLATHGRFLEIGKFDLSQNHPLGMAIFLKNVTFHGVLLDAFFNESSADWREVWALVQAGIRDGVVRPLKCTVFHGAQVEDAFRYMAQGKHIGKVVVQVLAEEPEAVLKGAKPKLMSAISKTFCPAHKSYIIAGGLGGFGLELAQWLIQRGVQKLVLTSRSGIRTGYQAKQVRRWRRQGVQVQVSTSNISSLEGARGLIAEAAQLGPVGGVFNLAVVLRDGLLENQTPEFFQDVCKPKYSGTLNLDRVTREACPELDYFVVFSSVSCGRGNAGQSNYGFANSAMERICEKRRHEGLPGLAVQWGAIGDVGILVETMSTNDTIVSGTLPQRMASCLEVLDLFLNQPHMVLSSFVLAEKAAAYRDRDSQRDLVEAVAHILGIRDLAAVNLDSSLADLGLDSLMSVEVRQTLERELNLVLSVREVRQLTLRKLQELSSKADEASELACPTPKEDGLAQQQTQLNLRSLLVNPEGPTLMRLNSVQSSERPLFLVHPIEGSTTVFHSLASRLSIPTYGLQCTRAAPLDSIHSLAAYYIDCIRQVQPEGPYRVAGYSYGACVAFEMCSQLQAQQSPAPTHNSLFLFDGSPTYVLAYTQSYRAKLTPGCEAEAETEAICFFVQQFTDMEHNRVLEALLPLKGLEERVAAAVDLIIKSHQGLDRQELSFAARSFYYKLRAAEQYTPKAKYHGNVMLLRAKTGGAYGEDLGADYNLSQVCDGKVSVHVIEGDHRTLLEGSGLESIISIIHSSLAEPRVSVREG

For `O=C(O)c1cnc(-c2ccccc2)nc1Sc1ccc(Cl)cc1Cl`, the EC50 in experiment [1] was 0.13 µM (active); in experiment [2], 57.8 µM (active); in experiment [3] it was 15.4 µM (active); at Streptokinase A, 18.8 µM (active); in experiment [4], > 53 µM (inactive); in the experiment with Streptococcus, > 150 µM (not active). Moreover, the IC50 in experiment [5] was 1.85 µM (active).

As for `CCN1CCN(C(CNC(=O)c2ccc3c(c2)OCO3)c2cccnc2)CC1` (stereo not drawn), the EC50 was > 120 µM (not active) in [6], 15.6 µM (active) in the experiment on H4 and 11.5 µM (active) in [7].

Consider `COc1cccc2c1Oc1ncccc1N(C(=O)CCC(=O)NCc1ccccc1F)C2`, for which the EC50 in experiment [1] was > 38 µM (not active); in experiment [2], 19.4 µM (inconclusive).

In the case of `COc1ccc(N2C(S)=NC3N2C(S)=NC3(C)c2ccccc2)cc1` (stereo not drawn), the EC50 in experiment [6] is 18.1 µM (active); with H4 it was 53.5 µM (active); in experiment [7], 35 µM (active).

As to `CSc1nsc(SCC(=O)Nc2ccc(C(C)=O)cc2)n1`, the EC50 was 4.49 µM (active) in experiment [6], 6.18 µM (active) with H4 and 23.5 µM (active) in experiment [7].

In the case of `CC(C)(C)C1CCC(OC(=O)CN2CCOCC2)CC1` (stereo not drawn), the EC50 was 13.5 µM (active) in [6], 19.6 µM (active) with H4 and 8.04 µM (active) in experiment [7].

What is called AC50 is the concentration at which the activity in the assay is half-maximal. In the case of `Cc1cc(O)c2c(c1)C(=O)C13C(=C2O)C(=O)[C@H]2[C@@H](O)[C@@H]1[C@H]1[C@H](O)[C@@H]3C(=O)C3=C(O)c4c(O)cc(C)cc4C(=O)C312` (stereo partly drawn), in the experiment with INS1, the AC50 was 7.65 µM (active).

With `CN(C)c1ccc(N=Nc2ccccc2C(=O)OCC(=O)N(C)C2CCCCC2)cc1`, the EC50 was 85.5 µM (active) in [6], 51.8 µM (active) in the experiment on H4 and 84.2 µM (active) in [7].

In the case of `COc1ccccc1N1CCN(C(=O)C(C)NC(=O)c2cccc([N+](=O)[O-])c2)CC1` (stereo not drawn), the values for the IC50 on Fatty acid synthase [8] and on Fatty acid synthase [9] were 2.72 µM (active) and 1.48 µM (active), respectively.

With `CN1C(=O)C2C=CC1C1C(=O)N(c3ccccc3)C(=O)C21` (stereo not drawn), the EC50 is 0.128 µM (active) in experiment [6], 0.209 µM (active) in the experiment on H4 and 0.45 µM (active) in experiment [7].

On to `CCO[C@@H]1OC(C(=O)NCc2nc3ccccc3[nH]2)=C[C@H](C2CC2)[C@H]1CCCO`, for which the EC50 (in experiment [6]; in the experiment on H4; in experiment [7]) was > 120 µM (not active) each time.

For `CC[n+]1c(/C=C/N(C)c2ccccc2)oc2ccccc21`, the EC50 in [1] is 3.58 µM (active); in [2] it was > 150 µM (inactive); in experiment [10], 0.258 µM (active); in experiment [11], 16.9 µM (active).

In the case of `CCCOc1ccc(NC(=O)CC2C(=O)N(CC)C(=S)N2Cc2cccs2)cc1` (stereo not drawn), the IC50 on Fatty acid synthase [8] is 12.4 µM (active); at Fatty acid synthase [9] it was 10.9 µM (active).

Regarding `CCOC(=O)C1CCN(C(=O)CN2C(=O)COc3ccc(C(C)(C)C)cc32)CC1`, the EC50 (in experiment [6]; in the experiment with H4; in [7]) was > 120 µM (not active) in each case.

On to `O=C(Nn1c(-c2ccc(Br)cc2)nc2ccccc2c1=O)c1ccc([N+](=O)[O-])cc1`, for which the IC50 on Fatty acid synthase [8] was 8.68 µM (active); on Fatty acid synthase [9] it was 7.74 µM (active).

Turning to `Nc1ccccc1-[n+]1c(-c2ccccc2)cc(-c2ccccc2)cc1-c1ccccc1.[O-][Cl+3]([O-])([O-])[O-]`, the EC50 in experiment [1] is 0.843 µM (active); in experiment [2], > 150 µM (inactive); in [10], 0.114 µM (active); in [11], > 60 µM (not active).

As to `O=C(NNc1ccc([N+](=O)[O-])cc1)c1ccccc1Cl`, the EC50 in experiment [1] is > 38 µM (not active); in [2], > 150 µM (inactive).

In the case of `O=C(/C=C/c1cccc([N+](=O)[O-])c1)N1CCN(c2ccc(F)cc2)CC1`, the IC50 is 2.32 µM (active) at Fatty acid synthase [8] and 4.93 µM (active) at Fatty acid synthase [9].

Regarding `O=[N+]([O-])c1ccc(Cl)c(S(=O)(=O)Nc2ccc(-c3ccc(N4CCCC4)nn3)cc2)c1`, the figures for the IC50 on Fatty acid synthase [8] and at Fatty acid synthase [9] were 8.93 µM (active) and 11.3 µM (active), respectively.

For `CC1CCc2c(C(=O)Oc3cccc(-n4cnnn4)c3)csc2C1` (stereo not drawn), the IC50 at Fatty acid synthase [8] was 1.71 µM (active); at Fatty acid synthase [9], 1.36 µM (active).

Take `COC(=O)c1cn(CCOc2ccccc2)c2ccccc12`: the EC50 in experiment [6] is 6.67 µM (active); with H4 it was 12.9 µM (active); in experiment [7], 10.2 µM (active).

With `CCCNC(=O)C12CCC(C)(c3nc4cc(C)c(C)cc4nc31)C2(C)C` (stereo not drawn), the EC50 in experiment [2] was 113 µM (active).

As for `O=S(=O)(Nc1nc(-c2ccccc2)cs1)c1cc(Cl)ccc1Cl`, the EC50 was 1.8 µM (active) in experiment [1] and > 160 µM (inactive) in experiment [2].

In the case of `Cn1nnnc1SCC(=O)Nc1nc2ccccc2s1`, the EC50 in [6] is 8.16 µM (active); with H4, 33.4 µM (active); in experiment [7], 8.98 µM (active).

Regarding `O=C(NCCC1=CCCCC1)c1ccc(Cl)c([N+](=O)[O-])c1`, the IC50 is 11.7 µM (active) on Fatty acid synthase [8] and 9.92 µM (active) on Fatty acid synthase [9].

As to `CC(C)(C)N1C(=O)[C@H]2[C@@H](c3ccc(Br)cc3)N3C(=O)N(c4cccc(F)c4)C(=O)[C@@]3(Cc3ccccc3)[C@H]2C1=O`, the IC50 at Fatty acid synthase [8] is 19.8 µM (active); at Fatty acid synthase [9], 10.8 µM (active).

With `CC(=O)c1cccc(-c2ccnc3c2CC(C(=O)Nc2cccc(OC(F)(F)F)c2)O3)c1` (stereo not drawn), the IC50 on Fatty acid synthase [8] was 9.72 µM (active); on Fatty acid synthase [9], 6.27 µM (active).

As to `Cc1noc(C)c1NC(=O)Nc1cccc2c1O[C@H](CN(C)C(=O)NC1CCCCC1)[C@@H](C)CN([C@H](C)CO)C2=O`, the values for the IC50 on Fatty acid synthase [8] and at Fatty acid synthase [9] were 2.47 µM (active) and 4.3 µM (active), respectively.

Regarding `O=C(CC1C[C@H](C(=O)N2CCOCC2)[C@@]2(CCC3CCCC3)c3[nH]c4ccccc4c3CCN2C1=O)NCc1cccc(C(F)(F)F)c1` (stereo partly drawn), the IC50 on Fatty acid synthase [8] was 4.98 µM (active); on Fatty acid synthase [9] it was 8.04 µM (active).

A word on the CC50: it is the concentration giving 50% cytotoxicity. As for `Cc1ccc(-c2nn(-c3ccccc3)cc2/C=N/O)cc1`, the EC50 (in [3]; on Streptokinase A; with Streptococcus) was > 150 µM (not active) each time. The CC50 in experiment [12] was 27.9 µM (active).

On to `CCCCC(=O)N/N=C/c1cc([N+](=O)[O-])ccc1N1CCOCC1`, for which the IC50 on Fatty acid synthase [8] was 4.56 µM (active); on Fatty acid synthase [9], 4.13 µM (active).

Take `COc1c2c(cc3oc(=O)c4c5ccc(O)cc5oc4c13)OC(C)(C)CC2` [ISOGLYCYROL]: the EC50 is 0.274 µM (active) in experiment [6] and 3.13 µM (active) in experiment [7].
